According to PubChem BioAssay (NCI):
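Five compound concentrations were applied to cells in 96-well plates for 48 hours; endpoints were derived by simple linear interpolation of the resulting dose-response curve. Abbreviation: GI50, concentration required for 50% inhibition of growth. TGI denotes the concentration required for complete inhibition of growth.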

How the values were obtained:
Assay in all cases: inhibition of tumour cell growth, NCI panel, 48 h
UACC-257 melanoma = system: UACC-257 melanoma
EKVX NSCLC = system: EKVX NSCLC
UACC-62 melanoma = system: UACC-62 melanoma
MOLT-4 leukemia = system: MOLT-4 leukemia
BT-549 breast = system: BT-549 breast
SK-OV-3 ovarian = system: SK-OV-3 ovarian
SNB-75 CNS = system: SNB-75 CNS
DU-145 prostate = system: DU-145 prostate
K-562 leukemia = system: K-562 leukemia
CCRF-CEM leukemia = system: CCRF-CEM leukemia
MDA-MB-435 = system: MDA-MB-435
MALME-3M melanoma = system: MALME-3M melanoma
CAKI-1 renal = system: CAKI-1 renal
SF-539 CNS = system: SF-539 CNS
HCT-15 colon = system: HCT-15 colon
HCT-116 colon = system: HCT-116 colon
NCI-H23 lung = system: NCI-H23 lung
SW-620 colon = system: SW-620 colon
UO-31 renal = system: UO-31 renal
SR leukemia = system: SR leukemia
LOX IMVI melanoma = system: LOX IMVI melanoma
A549 NSCLC = system: A549 NSCLC
SN12C renal = system: SN12C renal
MCF7 breast = system: MCF7 breast
IGROV1 ovarian = system: IGROV1 ovarian
OVCAR-3 ovarian = system: OVCAR-3 ovarian
RXF 393 renal = system: RXF 393 renal
HL-60(TB) leukemia = system: HL-60(TB) leukemia
OVCAR-8 ovarian = system: OVCAR-8 ovarian
HOP-62 NSCLC = system: HOP-62 NSCLC
T-47D breast = system: T-47D breast
TK-10 renal = system: TK-10 renal
SNB-19 CNS = system: SNB-19 CNS
OVCAR-4 ovarian = system: OVCAR-4 ovarian
NCI/ADR-RES ovarian = system: NCI/ADR-RES ovarian
SF-268 CNS = system: SF-268 CNS
PC-3 prostate = system: PC-3 prostate
SK-MEL-2 melanoma = system: SK-MEL-2 melanoma
U251 CNS = system: U251 CNS
HCC-2998 colon = system: HCC-2998 colon
NCI-H522 lung = system: NCI-H522 lung
NCI-H460 lung = system: NCI-H460 lung
M14 melanoma = system: M14 melanoma
SK-MEL-5 melanoma = system: SK-MEL-5 melanoma
OVCAR-5 ovarian = system: OVCAR-5 ovarian
SF-295 CNS = system: SF-295 CNS
NCI-H226 lung = system: NCI-H226 lung
RPMI-8226 leukemia = system: RPMI-8226 leukemia
SK-MEL-28 melanoma = system: SK-MEL-28 melanoma
ACHN renal = system: ACHN renal
KM12 colon = system: KM12 colon
HOP-92 NSCLC = system: HOP-92 NSCLC
HS 578T breast = system: HS 578T breast
786-0 renal = system: 786-0 renal
A498 renal = system: A498 renal
MDA-MB-231 breast = system: MDA-MB-231 breast
HT29 colon = system: HT29 colon
COLO 205 colon = system: COLO 205 colon

Compound: CC(C)Oc1ccc(-c2nn([C@@H](C)c3oc4ccc(F)cc4c(=O)c3-c3cccc(F)c3)c3ncnc(N)c23)cc1F
- GI50 (UACC-257 melanoma): > 100 µM
- TGI (UACC-257 melanoma): > 100 µM
- GI50 (EKVX NSCLC): 8.61 µM
- TGI (EKVX NSCLC): > 100 µM
- GI50 (UACC-62 melanoma): > 100 µM
- TGI (UACC-62 melanoma): > 100 µM
- GI50 (MOLT-4 leukemia): 9.28 µM
- TGI (MOLT-4 leukemia): > 100 µM
- GI50 (BT-549 breast): 6.99 µM
- TGI (BT-549 breast): > 100 µM
- GI50 (SK-OV-3 ovarian): > 100 µM
- TGI (SK-OV-3 ovarian): > 100 µM
- GI50 (SNB-75 CNS): > 100 µM
- TGI (SNB-75 CNS): > 100 µM
- GI50 (DU-145 prostate): > 100 µM
- TGI (DU-145 prostate): > 100 µM
- GI50 (K-562 leukemia): 5.68 µM
- TGI (K-562 leukemia): > 100 µM
- GI50 (CCRF-CEM leukemia): 6.17 µM
- TGI (CCRF-CEM leukemia): > 100 µM
- GI50 (MDA-MB-435): > 100 µM
- TGI (MDA-MB-435): > 100 µM
- GI50 (MALME-3M melanoma): > 100 µM
- TGI (MALME-3M melanoma): > 100 µM
- GI50 (CAKI-1 renal): 5.6 µM
- TGI (CAKI-1 renal): > 100 µM
- GI50 (SF-539 CNS): 15.2 µM
- TGI (SF-539 CNS): > 100 µM
- GI50 (HCT-15 colon): 9.33 µM
- TGI (HCT-15 colon): > 100 µM
- GI50 (HCT-116 colon): 8.96 µM
- TGI (HCT-116 colon): > 100 µM
- GI50 (NCI-H23 lung): 60.9 µM
- TGI (NCI-H23 lung): > 100 µM
- GI50 (SW-620 colon): > 100 µM
- TGI (SW-620 colon): > 100 µM
- GI50 (UO-31 renal): 3.81 µM
- TGI (UO-31 renal): > 100 µM
- GI50 (SR leukemia): 4.93 µM
- TGI (SR leukemia): > 100 µM
- GI50 (LOX IMVI melanoma): > 100 µM
- TGI (LOX IMVI melanoma): > 100 µM
- GI50 (A549 NSCLC): 7.7 µM
- TGI (A549 NSCLC): > 100 µM
- GI50 (SN12C renal): 9.89 µM
- TGI (SN12C renal): > 100 µM
- GI50 (MCF7 breast): 6.79 µM
- TGI (MCF7 breast): > 100 µM
- GI50 (IGROV1 ovarian): > 100 µM
- TGI (IGROV1 ovarian): > 100 µM
- GI50 (OVCAR-3 ovarian): 30.2 µM
- TGI (OVCAR-3 ovarian): > 100 µM
- GI50 (RXF 393 renal): 4.36 µM
- TGI (RXF 393 renal): > 100 µM
- GI50 (HL-60(TB) leukemia): 30.4 µM
- TGI (HL-60(TB) leukemia): > 100 µM
- GI50 (OVCAR-8 ovarian): 11.8 µM
- TGI (OVCAR-8 ovarian): > 100 µM
- GI50 (HOP-62 NSCLC): > 100 µM
- TGI (HOP-62 NSCLC): > 100 µM
- GI50 (T-47D breast): 5.42 µM
- TGI (T-47D breast): > 100 µM
- GI50 (TK-10 renal): 7.29 µM
- TGI (TK-10 renal): > 100 µM
- GI50 (SNB-19 CNS): 32.5 µM
- TGI (SNB-19 CNS): > 100 µM
- GI50 (OVCAR-4 ovarian): > 100 µM
- TGI (OVCAR-4 ovarian): > 100 µM
- GI50 (NCI/ADR-RES ovarian): 20.7 µM
- TGI (NCI/ADR-RES ovarian): > 100 µM
- GI50 (SF-268 CNS): 19.1 µM
- TGI (SF-268 CNS): > 100 µM
- GI50 (PC-3 prostate): 4.68 µM
- TGI (PC-3 prostate): > 100 µM
- GI50 (SK-MEL-2 melanoma): > 100 µM
- TGI (SK-MEL-2 melanoma): > 100 µM
- GI50 (U251 CNS): 23.9 µM
- TGI (U251 CNS): > 100 µM
- GI50 (HCC-2998 colon): > 100 µM
- TGI (HCC-2998 colon): > 100 µM
- GI50 (NCI-H522 lung): > 100 µM
- TGI (NCI-H522 lung): > 100 µM
- GI50 (NCI-H460 lung): 17.6 µM
- TGI (NCI-H460 lung): > 100 µM
- GI50 (M14 melanoma): > 100 µM
- TGI (M14 melanoma): > 100 µM
- GI50 (SK-MEL-5 melanoma): 48.9 µM
- TGI (SK-MEL-5 melanoma): > 100 µM
- GI50 (OVCAR-5 ovarian): > 100 µM
- TGI (OVCAR-5 ovarian): > 100 µM
- GI50 (SF-295 CNS): > 100 µM
- TGI (SF-295 CNS): > 100 µM
- GI50 (NCI-H226 lung): 26.9 µM
- TGI (NCI-H226 lung): > 100 µM
- GI50 (RPMI-8226 leukemia): 6.7 µM
- TGI (RPMI-8226 leukemia): > 100 µM
- GI50 (SK-MEL-28 melanoma): > 100 µM
- TGI (SK-MEL-28 melanoma): > 100 µM
- GI50 (ACHN renal): 50.1 µM
- TGI (ACHN renal): > 100 µM
- GI50 (KM12 colon): 25.8 µM
- TGI (KM12 colon): > 100 µM
- GI50 (HOP-92 NSCLC): 4.71 µM
- TGI (HOP-92 NSCLC): > 100 µM
- GI50 (HS 578T breast): 47.5 µM
- TGI (HS 578T breast): > 100 µM
- GI50 (786-0 renal): 12.8 µM
- TGI (786-0 renal): > 100 µM
- GI50 (A498 renal): 76.1 µM
- TGI (A498 renal): > 100 µM
- GI50 (MDA-MB-231 breast): 22.9 µM
- TGI (MDA-MB-231 breast): > 100 µM
- GI50 (HT29 colon): 21.8 µM
- TGI (HT29 colon): > 100 µM
- GI50 (COLO 205 colon): 67.3 µM
- TGI (COLO 205 colon): > 100 µM
